Measured values published in patent US9101632B2, “Kinase inhibitors, prodrug forms thereof and their use in therapy” (AUCKLAND UNISERVICES LIMITED, priority 2009, dated 2015).
Where two headings read alike, the source gives them in different places.

How the values were obtained:
SKOV3 cells = experiment: Inhibition of cellular proliferation (sulforhodamine B staining); settings: for SKOV3 HCR (Hypoxic Cytotoxicity Ratio): fold change in intra-experimental IC50, 4 hours anoxia relative to oxic only
H1975 tumours = settings: for Drug related deaths: lactate buffer pH 4; for Weight Loss Nadir (%): mean nadir relative to day 0 weight
A431 cells = experiment: Inhibition of cellular proliferation (sulforhodamine B staining)
erbB1 (EGFR) = erbB1 (EGFR) (Homo sapiens, UniProt P00533); experiment: Inhibition of erbB1 autophosphorylation in EGF-stimulated intact A431 cells (Western immunoblotting); type: cell-based; settings: 1 hour treatment, phospho-EGFR (Tyr 1068), β-actin corrected
Chain of erbB1 (EGFR) (P00533 25-1210): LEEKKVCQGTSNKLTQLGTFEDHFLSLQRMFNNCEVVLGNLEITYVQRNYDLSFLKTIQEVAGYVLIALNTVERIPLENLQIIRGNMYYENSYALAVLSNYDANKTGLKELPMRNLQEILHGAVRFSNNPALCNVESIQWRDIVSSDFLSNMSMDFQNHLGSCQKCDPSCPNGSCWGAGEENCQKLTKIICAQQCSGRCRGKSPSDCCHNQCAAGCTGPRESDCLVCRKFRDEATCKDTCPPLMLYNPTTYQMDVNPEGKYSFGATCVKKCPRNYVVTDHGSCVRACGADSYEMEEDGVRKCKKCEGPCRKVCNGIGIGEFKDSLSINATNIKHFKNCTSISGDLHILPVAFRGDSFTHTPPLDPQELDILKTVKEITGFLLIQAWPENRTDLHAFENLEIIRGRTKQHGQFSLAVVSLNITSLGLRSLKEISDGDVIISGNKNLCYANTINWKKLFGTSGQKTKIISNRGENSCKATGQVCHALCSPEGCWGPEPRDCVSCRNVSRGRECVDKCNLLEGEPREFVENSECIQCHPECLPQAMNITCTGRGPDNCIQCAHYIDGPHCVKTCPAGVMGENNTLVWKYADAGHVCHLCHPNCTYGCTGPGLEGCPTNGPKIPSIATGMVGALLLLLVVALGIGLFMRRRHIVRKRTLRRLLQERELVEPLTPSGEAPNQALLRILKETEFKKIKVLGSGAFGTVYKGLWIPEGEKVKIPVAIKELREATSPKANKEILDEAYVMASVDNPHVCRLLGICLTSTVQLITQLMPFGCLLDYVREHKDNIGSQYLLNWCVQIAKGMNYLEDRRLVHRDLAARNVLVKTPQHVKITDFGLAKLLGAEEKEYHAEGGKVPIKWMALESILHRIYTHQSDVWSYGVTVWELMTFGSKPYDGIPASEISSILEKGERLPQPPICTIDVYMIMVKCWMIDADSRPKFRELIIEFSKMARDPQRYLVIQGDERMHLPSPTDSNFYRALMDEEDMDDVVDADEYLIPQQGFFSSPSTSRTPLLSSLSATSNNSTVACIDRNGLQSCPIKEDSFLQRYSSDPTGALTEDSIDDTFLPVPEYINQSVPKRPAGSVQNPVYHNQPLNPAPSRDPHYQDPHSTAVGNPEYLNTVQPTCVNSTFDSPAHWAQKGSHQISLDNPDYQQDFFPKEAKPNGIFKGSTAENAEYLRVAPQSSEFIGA
Description: (§1) A431 cells were seeded into 6 well plates (with αMEM+5% FCS). The following day, plates were washed once with serum-free medium and grown for 18 hours in serum-free medium (αMEM) before being exposed to a range of inhibitor or prodrug concentrations for 1 hour and then stimulated for 15 minutes with 100 ng/ml epidermal growth factor (EGF receptor ligand). Next cells were washed with ice cold PBS and lysed in modified RIPA buffer on ice (30 min). Lysates were vortexed and clarify by spinning before protein concentrations of samples was determined by BCA assay. […] All antibodies were diluted in 2% BSA TBS-Tween 0.1%. To detect phospho-EGFR (Tyr 1068) the monoclonal antibody (1:500; Cell Signalling #2234) was incubated overnight at 4° C. and binding was detected with goat-anti-Rabbit-IgG-HRP conjugated secondary antibody (1:5000; Santa Cruz #SC2054; 3 h RT). To detect downstream phospho-p44/42 MAPK(Erk 1/2) (Thr202/Tyr 204) the monoclonal antibody (Cell Signalling #4370) was used at a 1:500 dilution. The blot was then treated with Goat anti-rabbit IgG-HRP conjugated secondary antibody (Santa Cruz Biotechnology, Inc. sc-2054) for three hours at a ratio of 1:5000. To normalise for any inaccuracy in gel loading, each blot was probed with anti-β-actin antibody (Abacus ALS #MAB-1501R, 1:2000 dilution). The following day, the blot was treated with Goat anti-mouse IgG-HRP conjugated secondary antibody (Santa Cruz Biotechnology, Inc. sc-2055) for one hour at a 1:5000 ratio. Protein bands were visualized using Amersham ECL Plus Western Blotting Detection Reagent (GE Healthcare RPN2132). Densitometry was determined using Image J software. Values normalized to β-actin were plotted on SigmaPlot 11.0.

p44/42 MAPK (Erk1/2) = experiment: Inhibition of p44/42 MAPK (Erk1/2) phosphorylation in EGF-stimulated intact A431 cells (Western immunoblotting); type: cell-based, human; settings: for downstream p44/42 MAPK(Erk 1/2) phosphorylation (Thr202/Tyr 204), result in words: 1 hour treatment; for IC50: Homo sapiens, A-431, 1 hour treatment, read-out: IC50 p44/42 MAPK(Erk 1/2) phosphorylation (Thr202/Tyr 204)
Description: as §1

H1975 cells = experiment: Inhibition of cellular proliferation (sulforhodamine B staining); settings: for H1975 HCR (Hypoxic Cytotoxicity Ratio): fold change in intra-experimental IC50, 4 hours anoxia relative to oxic only
A431 tumours = settings: A431 xenograft, q3dx4, intraperitoneal; for Drug related deaths: lactate buffer pH 4; for TGD (Tumour Growth Delay): % increase in time to RTV4 relative to control; for Weight Loss Nadir (%): mean nadir relative to day 0 weight
[1] = Fragmentation rate constant of 1-electron reduced prodrugs by pulse radiolysis; type: physicochemical; settings: formation of benzyl-type radicals absorbing in the 360-390 nm region
Description: The rate constants for fragmentation, kfrag, of the 1-electron reduced prodrugs can be measured using pulse radiolysis to observe the time-resolved formation of the absorption spectrum of the benzyl-type radical produced upon fragmentation of the radical anion.

[2] = pulse radiolysis, determined against methylviologen
[3] = read-out: Cellular Growth Inhibition IC50 SKOV3 Anoxic, initial 4 hours of the 24 hour exposure under anoxic conditions
[4] = H1975 xenograft, q3dx4, intraperitoneal
[5] = read-out: Cellular Growth Inhibition IC50 A431 Anoxic, initial 4 hours of the 24 hour exposure under anoxic conditions
[6] = read-out: Cellular Growth Inhibition IC50 H1975 Anoxic, initial 4 hours of the 24 hour exposure under anoxic conditions
[7] = read-out: Cellular Growth Inhibition IC50 SKOV3 Oxic, 24 hour exposure entirely under oxic conditions, washed, further 4 days
[8] = read-out: Cellular Growth Inhibition IC50 A431 Oxic, 24 hour exposure entirely under oxic conditions, washed, further 4 days
[9] = read-out: Cellular Growth Inhibition IC50 H1975 Oxic, 24 hour exposure entirely under oxic conditions, washed, further 4 days

CN(C)C/C=C/C(=O)Nc1cc2c(Nc3ccc(OCc4ccccn4)c(Cl)c3)ncnc2cn1 [Compound 3, (2E)-N-{4-[3-chloro-4-(2-pyridinylmethoxy)anilino]pyrido[3,4-d]pyrimidin-6-yl}-4-(dimethylamino)-2-butenamide]
IC50 (SKOV3 cells; [3]): 1.13 µM
Drug related deaths (H1975 tumours; [4]): 0
Weight Loss Nadir (%) (H1975 tumours; [4]): −4.7 ± 0.4%
IC50 (A431 cells; [5]): 0.14 µM
IC50 (erbB1 (EGFR)): 0.0483 µM
downstream p44/42 MAPK(Erk 1/2) phosphorylation (Thr202/Tyr 204), result in words (p44/42 MAPK (Erk1/2)): coordinate loss
IC50 (p44/42 MAPK (Erk1/2)): 0.179 µM
H1975 HCR (Hypoxic Cytotoxicity Ratio) (H1975 cells): 0.8
IC50 (H1975 cells; [6]): 0.73 µM

CN(C)C/C=C/C(=O)Nc1cc2c(Nc3ccc(Cl)c(Br)c3)ncnc2cn1 [Compound 5, (2E)-N-[4-(3-bromo-4-chloroanilino)pyrido[3,4-d]pyrimidin-6-yl]-4-(dimethylamino)-2-butenamide]
Drug related deaths (A431 tumours): 0
TGD (Tumour Growth Delay) (A431 tumours): >250%
Weight Loss Nadir (%) (A431 tumours): −6.3 ± 4.5%
SKOV3 HCR (Hypoxic Cytotoxicity Ratio) (SKOV3 cells): 0.9
IC50 (SKOV3 cells; [3]): 0.45 µM
IC50 (SKOV3 cells; [7]): 0.3 µM
Drug related deaths (H1975 tumours; [4]): 1
Weight Loss Nadir (%) (H1975 tumours; [4]): −8.5 ± 0.6%
A431 HCR (Hypoxic Cytotoxicity Ratio) (A431 cells; fold change in intra-experimental IC50, 4 hours anoxia relative to oxic only): 1.0
IC50 (A431 cells; [5]): 0.01 µM
IC50 (A431 cells; [8]): 0.009 µM
IC50 (erbB1 (EGFR)): 0.0395 µM
downstream p44/42 MAPK(Erk 1/2) phosphorylation (Thr202/Tyr 204), result in words (p44/42 MAPK (Erk1/2)): coordinate loss
H1975 HCR (Hypoxic Cytotoxicity Ratio) (H1975 cells): 0.9
IC50 (H1975 cells; [6]): 0.5 µM
IC50 (H1975 cells; [9]): 0.29 µM

CN(C)C/C=C/C(=O)Nc1cc2c(Nc3ccc(Br)c(Cl)c3)ncnc2cn1 [Compound 6, (2E)-N-[4-(4-bromo-3-chloroanilino)pyrido[3,4-d]pyrimidin-6-yl]-4-(dimethylamino)-2-butenamide]
Drug related deaths (A431 tumours): 0
TGD (Tumour Growth Delay) (A431 tumours): >250%
Weight Loss Nadir (%) (A431 tumours): −1.5 ± 0.8%
SKOV3 HCR (Hypoxic Cytotoxicity Ratio) (SKOV3 cells): 0.7
IC50 (SKOV3 cells; [3]): 0.55 µM
IC50 (SKOV3 cells; [7]): 0.2 µM
IC50 (A431 cells; [5]): 0.005 µM
IC50 (A431 cells; [8]): 0.005 µM
IC50 (erbB1 (EGFR)): 0.025 µM
downstream p44/42 MAPK(Erk 1/2) phosphorylation (Thr202/Tyr 204), result in words (p44/42 MAPK (Erk1/2)): coordinate loss
H1975 HCR (Hypoxic Cytotoxicity Ratio) (H1975 cells): 0.7
IC50 (H1975 cells; [6]): 0.22 µM
IC50 (H1975 cells; [9]): 0.15 µM

Cn1cnc([N+](=O)[O-])c1C[N+](C)(C)C/C=C/C(=O)Nc1cc2c(Nc3ccc4c(cnn4Cc4cccc(F)c4)c3)ncnc2cn1 [Compound 13, (2E)-4-[(4-{[1-(3-fluorobenzyl)-1H-indazol-5-yl]amino}pyrido[3,4-d]pyrimidin-6-yl)amino]N,N-dimethyl-N-[(1-methyl-4-nitro-1H-imidazol-5-yl)methyl]-4-oxo-2-buten-1-ammonium bromide]
IC50 (SKOV3 cells; [3]): 1.6 µM
IC50 (SKOV3 cells; [7]): 315 µM
kfrag./s^−1 rate constant for fragmentation [1]: 60 ± 10 s⁻¹
Drug related deaths (H1975 tumours; [4]): 0
Weight Loss Nadir (%) (H1975 tumours; [4]): −4.1 ± 2.5%
IC50 (A431 cells; [5]): 0.24 µM
IC50 (A431 cells; [8]): 6.2 µM
IC50 (H1975 cells; [6]): 3.3 µM
IC50 (H1975 cells; [9]): 92 µM
E(1)/V 1-electron reduction potential [2]: −0.417 V

Cn1cnc([N+](=O)[O-])c1C[N+](C)(C)C/C=C/C(=O)Nc1cc2c(Nc3ccc(OCc4ccccn4)c(Cl)c3)ncnc2cn1 [Compound 15, (2E)-4-({4-[3-chloro-4-(2-pyridinylmethoxy)anilino]pyrido[3,4-d]pyrimidin-6-yl}amino)-N,N-dimethyl-N-[(1-methyl-4-nitro-1H-imidazol-5-yl)methyl]-4-oxo-2-buten-1-ammonium bromide]
IC50 (SKOV3 cells; [3]): 0.6 µM
IC50 (SKOV3 cells; [7]): 159 µM
kfrag./s^−1 rate constant for fragmentation [1]: 60 ± 10 s⁻¹
growth delay of prodrug compared to its cognate kinase inhibitor, result in words (H1975 tumours; H1975 tumours, q3dx4): extended period of growth delay
Drug related deaths (H1975 tumours; [4]): 0
Weight Loss Nadir (%) (H1975 tumours; [4]): −9.4 ± 3.3%
IC50 (A431 cells; [5]): 0.3 µM
IC50 (A431 cells; [8]): 10 µM
IC50 (erbB1 (EGFR)): 5.29 µM
IC50 (p44/42 MAPK (Erk1/2)): 8.9 µM
IC50 (H1975 cells; [6]): 0.43 µM
IC50 (H1975 cells; [9]): 26 µM
E(1)/V 1-electron reduction potential [2]: −0.423 V

Cn1cnc([N+](=O)[O-])c1C[N+](C)(C)C/C=C/C(=O)Nc1cc2c(Nc3ccc(Cl)c(Cl)c3)ncnc2cn1 [Compound 16, (2E)-4-{[4-(3,4-dichloroanilino)pyrido[3,4-d]pyrimidin-6-yl]amino}-N,N-dimethyl-N-[(1-methyl-4-nitro-1H-imidazol-5-yl)methyl]-4-oxo-2-buten-1-ammonium bromide]
IC50 (SKOV3 cells; [3]): 0.53 µM
IC50 (SKOV3 cells; [7]): 40 µM
kfrag./s^−1 rate constant for fragmentation [1]: 60 ± 10 s⁻¹
Drug related deaths (H1975 tumours; [4]): 0
Weight Loss Nadir (%) (H1975 tumours; [4]): −10.1 ± 0.7%
IC50 (A431 cells; [5]): 0.015 µM
IC50 (A431 cells; [8]): 0.33 µM
IC50 (H1975 cells; [6]): 0.4 µM
IC50 (H1975 cells; [9]): 32 µM
E(1)/V 1-electron reduction potential [2]: −0.418 V

Cn1cnc([N+](=O)[O-])c1C[N+](C)(C)C/C=C/C(=O)Nc1cc2c(Nc3ccc(Br)c(Cl)c3)ncnc2cn1.[Br-] [Compound 18, (2E)-4-{[4-(4-bromo-3-chloroanilino)pyrido[3,4-d]pyrimidin-6-yl]amino}-N,N-dimethyl-N-[(1-methyl-4-nitro-1H-imidazol-5-yl)methyl]-4-oxo-2-buten-1-ammonium bromide]
Drug related deaths (A431 tumours): 0
TGD (Tumour Growth Delay) (A431 tumours): >250%
Weight Loss Nadir (%) (A431 tumours): −4.1 ± 0.4%
SKOV3 HCR (Hypoxic Cytotoxicity Ratio) (SKOV3 cells): 24
IC50 (SKOV3 cells; [3]): 0.6 µM
IC50 (SKOV3 cells; [7]): 13 µM
IC50 (A431 cells; [5]): 0.012 µM
IC50 (A431 cells; [8]): 0.5 µM
IC50 (H1975 cells; [6]): 0.2 µM
IC50 (H1975 cells; [9]): 13.3 µM
E(1)/V 1-electron reduction potential [2]: −0.428 V

Cn1cnc([N+](=O)[O-])c1C[N+](C)(C)C/C=C/C(=O)Nc1cc2c(Nc3ccc(Br)c(Br)c3)ncnc2cn1.[Br-] [Compound 19, (2E)-4-{[4-(3,4-dibromoanilino)pyrido[3,4-d]pyrimidin-6-yl]amino}-N,N-dimethyl-N-[(1-methyl-4-nitro-1H-imidazol-5-yl)methyl]-4-oxo-2-buten-1-ammonium bromide]
IC50 (SKOV3 cells; [3]): 0.42 µM
IC50 (SKOV3 cells; [7]): 29 µM
Drug related deaths (H1975 tumours; [4]): 1
TGD (Tumour Growth Delay) (H1975 tumours; H1975 xenograft, q3dx4, intraperitoneal, % increase in time to RTV4 relative to control): 138%
Weight Loss Nadir (%) (H1975 tumours; [4]): −2.7 ± 0.6%
IC50 (A431 cells; [5]): 0.025 µM
IC50 (A431 cells; [8]): 0.42 µM
IC50 (H1975 cells; [6]): 0.23 µM
IC50 (H1975 cells; [9]): 15 µM
E(1)/V 1-electron reduction potential [2]: −0.425 V
